{"source": "patent US20050136040A1", "about": "“Control of gene expression using a complex of an oligonucleotide and a regulatory peptide” (Imperial College Innovations Limited, priority 2001, published 2005)", "key": {"androgen receptor gene [1]": {"system": "androgen receptor gene", "assay": "RT-PCR of androgen receptor mRNA, LNCap cells treated with ARP-L218 and cyproterone acetate", "type": "cell-based, human", "details": "3 days", "method": "(§1) RT-PCR analysis of androgen receptor mRNA. After ethidium bromide staining the quantity of electrophoresed amplicons was determined in arbitrary units using a Labworks image reader.\nARP-L218 was prepared in phosphate buffer saline (PBS), 0.2 μm syringed filtered and used on day of test set-up.\n(§2) LNCap cells were transfected with ARP-L218 using lipofectamine2000 (cationic activated dendrimer, InVitrogen life technologies) with/without antagonist. Various amounts of ARP-L218 were mixed with a fixed amount of lipofectamine2000 (3 μl) in a total volume of 100 μl serum free medium without antibiotics (OptiMEM). After 20 mins incubation at room temperature, the transfection mixture was added to cells at 70% confluency and cells were incubated for 3 days.\n(§3) RNA was extracted and RT-PCR analysis of AR mRNA levels conducted as described above."}, "PSA": {"system": "PSA", "assay": "Secreted PSA by immunoassay in LnCap cells with or without R1881 (Example 2)", "type": "cell-based, human", "details": "LnCap control cells (no or irrelevant oligonucleotide-peptide fusion), 72 hours", "method": "In an example, the prostate cancer cell line LnCap is treated with the oligonucleotide-peptide fusion comprising a MAD1 or Sap18 peptide as described in Example 1. Transfected cells are optionally identified and/or isolated (for example using a GFP marker and FACS techniques) and are assayed for androgen receptor gene expression as well as for the classic prostate cancer marker PSA. For example, GFP-positive, FACS sorted cells were cultured in the presence or absence of the AR agonist R1881. After 72 hours, culture media were collected and the amount of the androgen-regulated protein PSA determined by immunoassay. Addition of R1881 results in an approximately 25-fold increase in levels of secreted PSA in control cells (with no oligonucleotide-peptide fusion, or an irrelevant oligonucleotide-peptide fusion)."}, "androgen receptor gene [2]": {"system": "androgen receptor gene", "assay": "RT-PCR of androgen receptor mRNA, LNCap cells treated with ARP-L218 and R1881", "type": "cell-based, human", "details": "3 days; for AR mRNA Percentage of control: vs PBS treated control", "method": "as §1\nThe effect of ARP-L218 on androgen receptor gene expression with and without a synthetic androgen (R1881) was measured using the protocol outlined in the above section.\nARP-L218 was prepared in phosphate buffer saline (PBS), 0.2 μm syringed filtered and used on day of test set-up. R1881 (synthetic androgen) was purchased from Perkin Elmer, Catalogue number NLP005005MG.\nas §2, with “agonist.” for “antagonist.”\nas §3"}, "[3]": {"system": "Prostate specific antigens (PSA) protein levels", "assay": "Total PSA in LNCap cell supernatants, chemiluminescent immunometric assay", "type": "cell-based, human", "details": "LNCap supernatant, 3 days", "method": "Cells were incubated in the presence of R1881 for 3 days. PSA levels in the supernatants were measure by ELISA. Each column represent total prostate specific antigen (PSA).\nTherefore, using the protocols described in Example 8 ARP-L218 was transfected into LNCap cells (GET/LNC/W39/P6) with Lipofectamine 2000 (InVitrogen) with or without R1881 (Perkin Elmer), a synthetic androgen, for 3 days, after which the supernatant were harvested for quantitation of total PSA protein at the Pathology Centre, Hammersrnith Hospital, London, U.K.\nPSA measurements were carried out by a chemiluminescent labelled immunometric assay using an automated immunoassay analyser (Abbott Architect Immunoassay Analyser)."}, "[4]": {"system": "interferon stimulated response element (IRE) of the human 6-16 gene", "assay": "Interferon-induced EGFP expression by FACS in modified HT1080 cells (C8)", "type": "cell-based", "details": "for Interferon-induced GFP expression: +INF 300 units/ml for one day", "method": "Cells habouring EGFP under the control of the interferon stimulated response element (ISRE) of the human 6-16 gene were transiently transfected with different compounds. Cells were then treated with 300 units/ml of IFN for one day and analysed by FACS for the GFP expression. • a) Parental cell line, no treatment • b) Cells expressing the stably transfected construct (C8), no treatment • c) C8 treated with interferon (+INF) • d) C8 transfected with 500 pm TFO, +INF • e) C8 specific TFO 1000 pM, +INF • f) C8, GeneICE1 500 pM, +INF • g) C8, GeneICE 2 500 pM, +INF • h) C8, unspecific control TFO 500 pM, +INF • i) C8, unspecific control TFO 1000 pM, +INF\nThese cells have a stably incorporated gene expressing EGFP under the control of the interferon stimulated response element (IRE) of the human 6-16 gene.\nFor the following data, cells were transiently transfected with different compounds using standard lipofectamine protocols. Cells were then treated with 300 units/ml of interferon (INF) for one day and analysed by FACS for the GFP expression."}}, "note": "[5FU] = 5-fluoro-deoxyuracil base", "data": [{"compound": "CC(=O)O[C@]1(C(C)=O)CC[C@H]2[C@@H]3C=C(Cl)C4=CC(=O)[C@@H]5C[C@@H]5[C@]4(C)[C@H]3CC[C@@]21C", "note": "[Cyproterone Acetate, Cyproterone acetate]", "values": [{"measurement": "androgen receptor gene expression levels (in words)", "setting": "androgen receptor gene [1]", "value": "can act to reduce AR gene expression"}, {"measurement": "AR band quantitation", "setting": "androgen receptor gene [1]; Cyproterone Acetate 0.1 nM", "value": 2357}, {"measurement": "AR mRNA % of control", "setting": "androgen receptor gene [1]; Cyproterone Acetate 0.1 nM", "value": 54.0, "unit": "%"}, {"measurement": "AR band quantitation", "setting": "androgen receptor gene [1]; Cyproterone Acetate 10 nM", "value": 2401}, {"measurement": "AR mRNA % of control", "setting": "androgen receptor gene [1]; Cyproterone Acetate 10 nM", "value": 51.5, "unit": "%"}, {"measurement": "AR band quantitation", "setting": "androgen receptor gene [1]; Cyproterone Acetate 1 uM", "value": 1868}, {"measurement": "AR mRNA % of control", "setting": "androgen receptor gene [1]; Cyproterone Acetate 1 uM", "value": 47.8, "unit": "%"}, {"measurement": "AR band quantitation", "setting": "androgen receptor gene [1]; Cyproterone Acetate 10 uM", "value": 1568}]}, {"compound": "C[C@]1(O)CC[C@H]2[C@@H]3CCC4=CC(=O)CCC4=C3C=C[C@@]21C", "note": "[R1881]", "values": [{"measurement": "increase in levels of secreted PSA on addition of R1881", "setting": "PSA", "value": "approximately 25 fold"}, {"measurement": "androgen receptor gene expression levels (in words)", "setting": "androgen receptor gene [2]", "value": "can act to reduce AR gene expression"}, {"measurement": "AR Ratio/beta-actin", "setting": "androgen receptor gene [2]; R1881 0.01 nM", "value": 0.237}, {"measurement": "AR band quantitation", "setting": "androgen receptor gene [2]; R1881 0.01 nM", "value": 2083}, {"measurement": "AR band quantitation Average", "setting": "androgen receptor gene [2]; R1881 0.01 nM", "value": 2083}, {"measurement": "AR mRNA Percentage of control", "setting": "androgen receptor gene [2]; R1881 0.01 nM", "value": 71.73, "unit": "%"}, {"measurement": "AR Ratio/beta-actin", "setting": "androgen receptor gene [2]; R1881 1 nM", "value": 0.103}, {"measurement": "AR band quantitation", "setting": "androgen receptor gene [2]; R1881 1 nM", "value": 1471}, {"measurement": "AR band quantitation Average", "setting": "androgen receptor gene [2]; R1881 1 nM", "value": 1471}, {"measurement": "AR mRNA Percentage of control", "setting": "androgen receptor gene [2]; R1881 1 nM", "value": 31.29, "unit": "%"}, {"measurement": "AR Ratio/beta-actin", "setting": "androgen receptor gene [2]; R1881 100 nM", "value": 0.116}, {"measurement": "AR band quantitation", "setting": "androgen receptor gene [2]; R1881 100 nM", "value": 1455}, {"measurement": "AR band quantitation Average", "setting": "androgen receptor gene [2]; R1881 100 nM", "value": 1455}, {"measurement": "AR mRNA Percentage of control", "setting": "androgen receptor gene [2]; R1881 100 nM", "value": 35.17, "unit": "%"}, {"measurement": "AR Ratio/beta-actin", "setting": "androgen receptor gene [2]; R1881 1 uM", "value": 0.165}, {"measurement": "AR band quantitation", "setting": "androgen receptor gene [2]; R1881 1 uM", "value": 1388}, {"measurement": "AR band quantitation Average", "setting": "androgen receptor gene [2]; R1881 1 uM", "value": 1388}, {"measurement": "AR mRNA Percentage of control", "setting": "androgen receptor gene [2]; R1881 1 uM", "value": 49.92, "unit": "%"}, {"measurement": "effect on PSA levels (in words)", "setting": "[3]", "value": "show an increase in PSA levels"}, {"measurement": "Total PSA", "setting": "[3]; R1881 0.01 nM", "value": 372, "unit": "ng/mL"}, {"measurement": "Total PSA", "setting": "[3]; R1881 100 nM", "value": 1980, "unit": "ng/mL"}]}, {"compound": "specific TFO: IRE TFO (5′) GGGUGGTGGGGTTGTGTT (3′), U = 5-fluro-deoxyuracil, without peptide (DNA, [5FU] at 4, backbone not given here)", "values": [{"measurement": "Interferon-induced GFP expression", "setting": "[4]; 500 pM", "value": 53, "unit": "%"}, {"measurement": "Interferon-induced GFP expression", "setting": "[4]; 1000 pM", "value": 63, "unit": "%"}, {"measurement": "average repression of INF induced GFP expression", "setting": "[4]; +INF, average over the conditions of Table 4", "value": 42, "unit": "%"}]}]}
